Experimental data as given in ChEMBL document CHEMBL1201862, “PubChem BioAssay data set” (2004).
Activity calls are given as the source filed them.

Experiments:
[1] = cytotoxicity in HPDE-C7 cells, cell-based, fluorescence, HTS (AID 430); assay type: functional; settings: Homo sapiens
[2] = HEp-2 cell cytotoxicity, dose response, cytotoxicity control for RSV inhibitor project, HTS (AID 2410); assay type: functional; settings: human respiratory syncytial virus
[3] = growth suppression of beta-catenin-knockout colon cells, dose response, cell-based, HCT116, human colon tumor (AID 1045); assay type: functional;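 also: HCT116 colon tumor cells with beta catenin knocked out; cells exposed to compound for 60 hours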
[4] = molecular target: T1, DNA repair protein RAD52 homolog (Homo sapiens, UniProt P43351); assay type: functional, biochemical
T1 sequence (P43351 whole entry): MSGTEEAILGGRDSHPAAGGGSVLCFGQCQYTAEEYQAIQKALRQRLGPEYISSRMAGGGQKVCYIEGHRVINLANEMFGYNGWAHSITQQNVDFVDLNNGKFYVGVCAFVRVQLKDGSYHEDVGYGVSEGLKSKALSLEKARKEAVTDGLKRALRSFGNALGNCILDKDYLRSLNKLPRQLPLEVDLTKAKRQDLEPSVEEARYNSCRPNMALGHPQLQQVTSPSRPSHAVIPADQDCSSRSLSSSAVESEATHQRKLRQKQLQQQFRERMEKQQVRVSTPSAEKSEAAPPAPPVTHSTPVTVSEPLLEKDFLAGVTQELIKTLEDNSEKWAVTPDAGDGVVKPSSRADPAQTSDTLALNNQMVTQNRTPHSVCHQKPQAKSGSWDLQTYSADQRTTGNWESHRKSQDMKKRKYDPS

[5] = molecular target: Dual specificity tyrosine-phosphorylation-regulated kinase 1A (Rattus norvegicus, UniProt Q63470); assay type: biochemical, Homo sapiens
[6] = growth suppression of PTEN-null colon cells, dose response, cell-based, HCT116 PTEN knockout (AID 1047); assay type: functional;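 also: HCT116 colon tumor cells with PTEN knocked out; cells exposed to compound for 60 hours before readout; potency for loss of cell viability measured by luminescence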
[7] = cytotoxicity in KRAS-transformed pancreatic duct cells, primary screen, cell-based, fluorescence, HTS (AID 431); assay type: functional; settings: Homo sapiens;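 also: cell line used: HPDE-C7K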
[8] = cytotoxicity toward HT-29 cells – cell-based, CellTiter-Glo luminescence, IC50, dose response (AID 1117330); assay type: functional
[9] = HCT116 cell viability decrease, GSK3B pretreatment – CellTiter-Glo, IC50, dose response (AID 1117339); assay type: functional; settings: HCT-116
[10] = cytotoxicity toward HCT116 cells – cell-based, CellTiter-Glo luminescence, IC50, dose response (AID 1117332); assay type: functional; settings: HCT-116
[11] = RKO cell viability reduction, dose response, CellTiter-Glo luminescence (AID 1117322); assay type: functional
[12] = cytotoxicity toward Colo320 cells – cell-based, CellTiter-Glo luminescence, IC50, dose response (AID 1117334); assay type: functional; settings: COLO 320
[13] = HeLa 2N DNA content increase, dose response, cell-based, IC50 (AID 1117349); assay type: functional
[14] = HeLa 4N DNA content increase, dose response, cell-based, IC50 (AID 1117351); assay type: functional
[15] = SNU-C1 cell viability reduction, dose response, CellTiter-Glo luminescence (AID 1117323); assay type: functional, cell-based
[16] = CellTiter-Glo luminescent dose response of DLD-1 viability loss (AID 1117352); assay type: functional
[17] = P. falciparum Dd2 growth inhibitors, dose response, SYBR Green, dry powder samples, set 9 (AID 1159568); assay type: functional, cell-based
[18] = inhibitors of Vif binding to APOBEC3G peptide, primary screen, biochemical, TR-FRET, GST-Vif 1-94, biotin-A3G peptide, dose response retest (AID 1117319); assay type: functional;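 also: TR-FRET signal of purified GST-Vif binding a biotinylated A3G peptide; inhibitors lower the FRET signal by blocking Vif and A3G binding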
[19] = molecular target: T2, Zinc finger protein mex-5 (Caenorhabditis elegans, UniProt Q9XUB2); assay: MEX-5/TCR-2 RNA interaction inhibitors, dose response, biochemical, C. elegans, fluorescence polarization (AID 1960)
T2 sequence (Q9XUB2 whole entry): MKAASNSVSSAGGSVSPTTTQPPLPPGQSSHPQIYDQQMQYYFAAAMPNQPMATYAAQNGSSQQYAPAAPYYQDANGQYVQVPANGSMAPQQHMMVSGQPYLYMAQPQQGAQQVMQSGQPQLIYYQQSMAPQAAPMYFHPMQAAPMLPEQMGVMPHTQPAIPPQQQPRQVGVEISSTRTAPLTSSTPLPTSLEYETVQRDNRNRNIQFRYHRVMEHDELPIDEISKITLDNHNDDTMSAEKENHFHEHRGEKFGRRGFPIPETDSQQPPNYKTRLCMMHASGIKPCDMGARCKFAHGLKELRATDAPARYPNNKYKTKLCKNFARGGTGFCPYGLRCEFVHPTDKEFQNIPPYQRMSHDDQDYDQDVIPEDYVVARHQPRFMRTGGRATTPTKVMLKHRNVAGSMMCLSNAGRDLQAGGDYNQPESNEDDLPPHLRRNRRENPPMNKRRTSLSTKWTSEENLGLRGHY

[20] = cytotoxicity in HMLE control line with eGFP shRNA, dose response, counter-screen for HMLE_sh_ECad selective toxicity project, cell-based, HMLE_sh_eGFP, luminescence (AID 463074); assay type: functional, Homo sapiens;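 also: HMLE human mammary epithelial cells expressing control shRNA against eGFP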
[21] = molecular target: T3, RNA-binding protein pos-1 (Caenorhabditis elegans, UniProt G5EF15); assay: inhibitors of POS-1/mex-3 RNA binding, dose response, biochemical, fluorescence polarization (AID 1964);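 also: purified POS-1 fused to maltose binding protein made in E. coli; potency of compounds blocking POS-1 binding to fluorescent RNA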
T3 sequence (G5EF15 whole entry): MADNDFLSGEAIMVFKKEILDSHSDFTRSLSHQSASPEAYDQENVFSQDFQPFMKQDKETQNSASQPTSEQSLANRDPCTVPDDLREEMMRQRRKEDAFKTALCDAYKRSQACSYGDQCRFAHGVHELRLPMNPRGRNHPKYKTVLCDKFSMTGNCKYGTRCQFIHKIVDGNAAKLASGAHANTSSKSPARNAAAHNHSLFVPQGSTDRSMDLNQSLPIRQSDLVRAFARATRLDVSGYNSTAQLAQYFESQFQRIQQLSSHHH

[22] = molecular target: 72 kDa type IV collagenase (Homo sapiens, UniProt P08253); assay: Dose Response validation of uHTS RPN11 inhibitor hits using a MMP-2 Fluorescence assay.; assay type: functional
[23] = molecular target: 26S proteasome non-ATPase regulatory subunit 14 (Homo sapiens, UniProt O00487); assay: inhibition of proteasome subunit RPN11 – biochemical, fluorescence polarization, uHTS hits, confirmation (AID 602368); assay type: functional
[24] = THP-1 cell cytotoxicity, dose response, cytotoxicity control for Vif-APOBEC3G degradation inhibitor project, THP-1 cells (AID 1117359); assay type: functional; settings: Human immunodeficiency virus 1, THP-1
Prothrombin = Prothrombin (Bos taurus, UniProt P00735); assay: thrombin inhibition, dose response, biochemical, fluorescence polarization, uHTS hits (AID 602369); assay type: functional
[25] = Luminescence Cell-Based Dose Retest to Confirm Inhibitors of Cancer Stem Cells. [Related pubchem assays (depositor defined):AID2717, AID2721]; assay type: functional; settings: Homo sapiens
[26] = Luminescence Cell-Based Dose Response to Identify Activators of 5'UTR Stem-Loop Driven Prion Protein mRNA Translation in H4-C Neuroglioblastoma Cells. [Related pubchem assays: 1829 (Project Summary), 1814 (Primary HTS)]; assay type: functional
H4 = assay: Luminescence Cell-Based Dose Response HTS to Identify Activators of 5'UTR Stem-Loop Driven Prion Protein mRNA Translation in H4 Neuroglioblastoma Cells. [Related pubchem assays: 1829 (Project Summary), 1814 (Primary HTS)]; assay type: functional; settings: Homo sapiens
[27] = Luminescence Cell-Based Dose Response HTS to Identify Activators of Luciferase Translation or Activity in H4 […] Cells. [Related pubchem assays: 1829 (Project Summary), 1814 (Primary HTS)]; assay type: functional
[28] = Luminescence Cell-Based Dose Confirmation to Identify Activators of 5'UTR Stem-Loop Driven Alpha-Synuclein mRNA Translation in H4 Neuroglioblastoma Cells. [Related pubchem assays: 1829 (Project Summary), 1814 (Primary HTS)]; assay type: functional
[29] = Luminescence Cell-Based Dose Response to Identify Activators of Luciferase Translation or Activity in H4-C Neuroglioblastoma Cells. [Related pubchem assays: 1829 (Project Summary), 1814 (Primary HTS)]; assay type: functional
[30] = Luminescence Cell-Based Dose Confirmation HTS to Identify Activators of 5'UTR Stem-Loop Driven Alpha-Synuclein mRNA Translation in H4 Neuroglioblastoma Cells. [Related pubchem assays: 1829 (Project Summary), 1814 (Primary HTS)]; assay type: functional
[31] = Concentration-dependent survival of SW480 colon cancer line, luminescence detection with CellTiter-Glo, half-maximal inhibitory concentration (AID 1117338); assay type: functional

Sequence of 26S proteasome non-ATPase regulatory subunit 14 (O00487 whole entry): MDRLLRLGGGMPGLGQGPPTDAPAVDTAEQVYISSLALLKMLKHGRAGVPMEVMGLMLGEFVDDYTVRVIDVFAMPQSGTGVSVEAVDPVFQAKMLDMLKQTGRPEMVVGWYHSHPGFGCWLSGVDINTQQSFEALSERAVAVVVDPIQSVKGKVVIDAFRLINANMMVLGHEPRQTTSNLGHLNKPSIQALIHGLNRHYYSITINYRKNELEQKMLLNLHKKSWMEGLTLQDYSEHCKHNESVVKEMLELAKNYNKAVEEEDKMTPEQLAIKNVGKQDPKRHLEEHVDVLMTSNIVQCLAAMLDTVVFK
Sequence of 72 kDa type IV collagenase (P08253 whole entry): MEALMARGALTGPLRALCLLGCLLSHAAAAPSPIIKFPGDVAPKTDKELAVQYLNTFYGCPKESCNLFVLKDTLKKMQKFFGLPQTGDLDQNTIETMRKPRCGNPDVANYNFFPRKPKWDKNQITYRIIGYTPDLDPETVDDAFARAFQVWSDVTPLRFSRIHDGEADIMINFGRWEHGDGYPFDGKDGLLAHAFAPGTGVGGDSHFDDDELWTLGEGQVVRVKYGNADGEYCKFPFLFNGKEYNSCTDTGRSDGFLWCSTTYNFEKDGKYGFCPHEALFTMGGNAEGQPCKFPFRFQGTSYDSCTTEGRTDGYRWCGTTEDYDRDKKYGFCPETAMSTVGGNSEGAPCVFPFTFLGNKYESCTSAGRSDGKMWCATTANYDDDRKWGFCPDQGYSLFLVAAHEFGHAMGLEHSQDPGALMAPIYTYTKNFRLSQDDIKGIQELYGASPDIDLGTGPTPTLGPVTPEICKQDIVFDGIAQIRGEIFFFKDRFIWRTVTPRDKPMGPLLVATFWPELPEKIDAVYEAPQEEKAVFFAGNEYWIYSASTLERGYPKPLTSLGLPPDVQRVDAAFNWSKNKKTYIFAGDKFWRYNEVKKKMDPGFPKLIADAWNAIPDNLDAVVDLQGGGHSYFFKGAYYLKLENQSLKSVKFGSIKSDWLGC

CN1CCN(c2cc3c(c4c2[nH]c2ccccc24)C(=O)CC(C)(C)C3)CC1
EC50 [1]: 13.2 µM (active)
CC50 [2]: 15.6 µM (active)
EC50 [3]: 10.4 µM (active)
AC50 [4]: 9.48 µM (active)
AC50 [5]: 7.77 µM (active)
EC50 [6]: 11.4 µM (active)
EC50 [7]: 12.9 µM (active)

Nc1nc(Cl)nc2c1ncn2[C@@H]1O[C@H](CO)[C@@H](O)[C@@H]1F [CLOFARABINE]
IC50 [8]: > 20 µM (inactive)
IC50 [9]: 0.001 µM (active)
IC50 [10]: 0.001 µM (active)
IC50 [11]: 0.001 µM (active)
IC50 [12]: > 20 µM (inactive)
IC50 [13]: > 10 µM (inactive)
IC50 [14]: > 10 µM (inactive)
IC50 [15]: > 20 µM (inactive)
IC50 [16]: 0.164 µM (active)

O=C(C[C@@H]1C[C@H]2c3cc(NC(=O)c4ccc5c(c4)OCO5)ccc3O[C@H]2[C@H](CO)O1)NCc1ccc(Oc2ccccc2)cc1
AC50 [17]: 25.6 µM (active)

O=S(=O)(Nc1ccc(N2CCOCC2)cc1)c1ccccc1
IC50 [18]: > 100 µM (active)

CCOc1ccccc1N1C(=O)NC(=O)/C(=C\Nc2ccc(N(CC)CC)cc2)C1=O
EC50 [19]: > 300 µM (inconclusive)
AC50 [20]: 51 µM (active)
EC50 [21]: > 300 µM (not active)
IC50 [22]: > 100 µM (inactive)
IC50 [23]: 18.3 µM (active)
IC50 [18]: > 57.5 µM (active)
CC50 [24]: 26 µM (active)
IC50 (Prothrombin): 13.4 µM (active)
AC50 [25]: 40.9 µM (active)

CCOC(=O)c1s/c(=N\C(=O)/C=C/c2cccs2)n(C)c1C
EC50 [26]: 2.23 µM (active)
EC50 (H4): 1.08 µM (active)
EC50 [27]: < 0.1 µM (inconclusive)
EC50 [28]: 0.315 µM (active)
EC50 [29]: > 12 µM (not active)

CCCn1c(O)nnc1Sc1nnnn1-c1ccccc1
EC50 (H4): > 120 µM (not active)
IC50 [18]: > 100 µM (active)
EC50 [27]: 6.75 µM (active)
EC50 [30]: 40.1 µM (active)

O=c1[nH]cc(F)c(=O)[nH]1 [FLUOROURACIL]
IC50 [8]: > 20 µM (inactive)
IC50 [11]: > 20 µM (inactive)
IC50 [12]: > 20 µM (inactive)
IC50 [31]: > 20 µM (inactive)
IC50 [13]: > 10 µM (inactive)
IC50 [14]: > 10 µM (inactive)
IC50 [15]: > 20 µM (inactive)
IC50 [16]: > 20 µM (inactive)
